Results from patent US9079913B2, “Spiro-oxindole MDM2 antagonists” (The Regents of the University of Michigan, priority 2009, dated 2015).
Where two headings read alike, the source gives them in different places. One block for each molecule: values may come before it.

Columns and labels:
[1] = system: Isogenic HCT-116 colon cancer cell lines; assay: cells; type: cell-based;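 also: cells grown in 96-well plates in McCoy's 5A medium with 10% FBS, exposed to compound for 4 days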
Method: Cells were seeded in 96-well flat bottom cell culture plates at a density of 2−3×10^3 cells/well with compounds and incubated for 4 days.

[2] = system: cancer cell lines with wild-type p53 / mutated or deleted p53 (ATCC); assay: Cell growth assay (WST-8), other cancer cell lines; type: cell-based
[3] = In vitro microsomal stability, rat; type: in vitro ADME
[4] = Homo sapiens, LNCaP, Table 19A, LNCAP cells, p53 wild-type, cell growth, read-out: LNCAP (p53 wild-type) IC50
[5] = Homo sapiens, PC-3, Table 19A, PC-3 cells, deleted p53, cell growth, read-out: PC-3 (deleted p53) IC50
[6] = Homo sapiens, SJSA-1, Table 19A, SJSA-1 cells, p53 wild-type, cell growth, read-out: SJSA-1 (p53 wild-type) IC50
[7] = Homo sapiens, HCT-116, read-out: HCT-116 (p53-/-) IC50, Table 19A, HCT-116 p53-/-, cell growth
[8] = Homo sapiens, HCT-116, read-out: HCT-116 (p53 wild-type) IC50, Table 19A, HCT-116 p53 wild-type, cell growth
[9] = Homo sapiens, LNCaP, read-out: LNCAP (p53 wild-type) IC50
[10] = Homo sapiens, SJSA-1, read-out: SJSA-1 (p53 wild-type) IC50
[11] = Homo sapiens, LNCaP, Table 19B, LNCaP cells, read-out: Inhibition of cell growth IC50, LNCaP
[12] = Homo sapiens, HCT-116, read-out: Inhibition of cell growth IC50, HCT116 p53 WT, Table 19B, HCT116 p53 WT

SMILES: CC(C)(C)C[C@@H]1N[C@@H](C(=O)NC2CCC(O)CC2)[C@H](c2cccc(F)c2F)[C@]12C(=O)Nc1cc(Cl)ccc12 (some centres unmarked) [MI-710201]
IC50 ([1]; Homo sapiens, HCT-116, read-out: HCT-116 (p53 wild-type) IC50): 300 nM

SMILES: CC(C)(C)C[C@H]1N[C@@H](C(=O)NC2CC(=O)C2)[C@H](c2cccc(Cl)c2F)[C@@]12C(=O)Nc1cc(Cl)ccc12 [MI-519-70]
IC50 [2, 4]: < 5000 nM
IC50 [2, 5]: > 10000 nM
IC50 [2, 6]: < 5000 nM
IC50 [1, 7]: > 10000 nM
IC50 [1, 8]: < 5000 nM

SMILES: CC(C)(C)C[C@@H]1N[C@@H](C(=O)NC2CCC(O)CC2)[C@H](c2cccc(Cl)c2F)[C@]12C(=O)Nc1cc(Cl)ccc12 (some centres unmarked) [MI-77301]
IC50 [2, 9]: 100 nM
IC50 ([2]; Homo sapiens, PC-3, read-out: PC-3 (deleted p53) IC50): 13000 nM
IC50 [2, 10]: 800 nM
IC50 [1, 8]: 100 nM

SMILES: CNCC(=O)N1CCN(C(=O)[C@@H]2N[C@H](CC(C)(C)C)[C@]3(C(=O)Nc4cc(Cl)c(F)cc43)[C@H]2c2cccc(Cl)c2)CC1 [MI-747]
IC50 [2, 4]: 1300 nM
IC50 [2, 5]: 3700 nM
IC50 [1, 7]: 3900 nM
IC50 [1, 8]: 1300 nM

SMILES: CC(C)(C)C[C@H]1N[C@@H](C(=O)NCCCCN2CCCC2)[C@H](c2cccc(Cl)c2F)[C@@]12C(=O)Nc1cc(Cl)c(F)cc12 [MI-765]
IC50 [2, 4]: 1500 ± 900 nM
IC50 [2, 5]: 2600 ± 200 nM
IC50 [2, 6]: 1400 ± 100 nM
IC50 [1, 7]: 4700 ± 2000 nM
IC50 [1, 8]: 1100 ± 200 nM

SMILES: CC(C)(C)C[C@H]1N[C@@H](C(=O)NCC[C@H]2CC[C@@H](O)C2)[C@H](c2cccc(Cl)c2F)[C@@]12C(=O)Nc1cc(Cl)ccc12 [MI-753]
IC50 [2, 11]: 3200 ± 300 nM
IC50 ([2]; Table 19B, PC3 cells, read-out: Inhibition of cell growth IC50, PC3): 24700 ± 2700 nM
IC50 [1, 12]: 2900 ± 100 nM
IC50 ([1]; read-out: Inhibition of cell growth IC50, HCT116 p53 KO, Table 19B, HCT116 p53 KO): 21800 ± 4900 nM

SMILES: CC(C)(C)C[C@H]1N[C@@H](C(=O)N[C@H]2C[C@](C)(O)C2)[C@H](c2cccc(Cl)c2F)[C@@]12C(=O)Nc1cc(Cl)ccc12 [MI-519-65]
cell growth inhibition (in words) [2]: effectively inhibit cancer cell growth
IC50 [2, 9]: < 3000 nM
IC50 [2, 10]: < 3000 nM

SMILES: CN1[C@@H](C(=O)NCCN2CCOCC2)[C@H](c2cccc(Cl)c2F)[C@@]2(C(=O)Nc3cc(F)c(F)cc32)[C@H]1CC(C)(C)C [MI-722]
IC50 [2, 11]: > 100000 nM
IC50 ([2]; Homo sapiens, PC-3, Table 19B, PC3 cells, read-out: Inhibition of cell growth IC50, PC3): > 100000 nM
IC50 ([1]; Homo sapiens, HCT-116, read-out: Inhibition of cell growth IC50, HCT116 p53 KO, Table 19B, HCT116 p53 KO): > 100000 nM
IC50 [1, 12]: > 100000 nM

% of compound remaining when incubated in rat liver microsomes ([3]; Table 17, 0 min): 100%
% of compound remaining when incubated in rat liver microsomes ([3]; Table 17, 4 min): 96.8%
% of compound remaining when incubated in rat liver microsomes ([3]; Table 17, 6 min): 97.3%
% of compound remaining when incubated in rat liver microsomes ([3]; Table 17, 10 min): 85.6%
% of compound remaining when incubated in rat liver microsomes ([3]; Table 17, 15 min): 72.1%
% of compound remaining when incubated in rat liver microsomes ([3]; Table 17, 30 min): 61.5%
SMILES: CC(C)(C)C[C@H]1N[C@@H](C(=O)NCCN2CCCC2)[C@H](c2cccc(Cl)c2F)[C@@]12C(=O)Nc1cc(Cl)c(F)cc12 [MI-763]
microsomal stability (in words) ([3]; rat liver microsomes): improved microsomal stability over MI-219

SMILES: CC(C)(C)C[C@H]1N[C@@H](C(=O)NCC[C@H]2CC[C@H](NS(C)(=O)=O)C2)[C@H](c2cccc(Cl)c2F)[C@@]12C(=O)Nc1cc(Cl)c(F)cc12 [MI-766]
IC50 [2, 4]: 900 nM
IC50 [2, 5]: 5900 ± 2200 nM
IC50 [2, 6]: 1700 ± 1400 nM
IC50 [1, 7]: 6900 ± 1400 nM
IC50 [1, 8]: 700 nM

% of compound remaining when incubated in rat liver microsomes ([3]; Table 16, 0 min): 100%
% of compound remaining when incubated in rat liver microsomes ([3]; Table 16, 4 min): 74.4%
% of compound remaining when incubated in rat liver microsomes ([3]; Table 16, 6 min): 52.5%
% of compound remaining when incubated in rat liver microsomes ([3]; Table 16, 10 min): 41.1%
% of compound remaining when incubated in rat liver microsomes ([3]; Table 16, 15 min): 36.7%
% of compound remaining when incubated in rat liver microsomes ([3]; Table 16, 30 min): 33.1%
SMILES: CCN1CCN(CCNC(=O)C2NC(CC(C)(C)C)C3(C(=O)Nc4cc(Cl)ccc43)C2c2cccc(Cl)c2F)CC1 (centres unmarked) [MI-129]

SMILES: CC(C)(C)C[C@H]1N[C@@H](C(=O)NC2CCC(O)CC2)[C@H](c2cccc(Cl)c2F)[C@@]12C(=O)Nc1cc(F)c(F)cc12 (some centres unmarked) [MI-7104]
IC50 ([2]; read-out: LNCAP (p53 wild-type) IC50): < 3000 nM
IC50 ([2]; read-out: PC-3 (deleted p53) IC50): > 10000 nM
IC50 ([2]; read-out: SJSA-1 (p53 wild-type) IC50): < 3000 nM

SMILES: CC(C)(C)C[C@H]1N[C@@H](C(=O)NC2CCN(CC(F)F)CC2)[C@H](c2cccc(Cl)c2F)[C@@]12C(=O)Nc1cc(Cl)ccc12 [MI-519-66]
IC50 ([2]; Homo sapiens, LNCaP, Table 19D, LNCaP cells, read-out: LNCaP IC50): < 3000 nM
IC50 ([2]; Homo sapiens, PC-3, Table 19D, PC3 cells, read-out: PC3 IC50): 6890 nM
IC50 ([2]; Homo sapiens, Table 19D, SJSA-1 cells, unit inferred, read-out: SJSA-1): < 3000 nM
IC50 ([1]; Homo sapiens, HCT-116, read-out: HCT116p53KO IC50, Table 19D, HCT116 p53KO): 5510 nM
IC50 ([1]; Homo sapiens, HCT-116, read-out: HCT116p53WT IC50, Table 19D, HCT116 p53WT): < 2000 nM
